Values of other authors in patent US20120035207A1, “Use of GABAA Receptor Agonists for the Treatment of Hearing, Vestibular and Attention Disorders, Intention Tremor and Restless Leg Syndrome” (priority 2003, published 2012).

Molecular target: T1, a4β3δ receptor (Homo sapiens, UniProt P28472+P48169)
T1 construct: host or cells: mouse L(-tk) cells stably expressing the α4β3δ receptor (Brown et al; Adkins et al.)
Details: reported by Brown et al, British J. Pharmacol., 136, 965-74 (2002)

T1 sequence (P48169 36-554): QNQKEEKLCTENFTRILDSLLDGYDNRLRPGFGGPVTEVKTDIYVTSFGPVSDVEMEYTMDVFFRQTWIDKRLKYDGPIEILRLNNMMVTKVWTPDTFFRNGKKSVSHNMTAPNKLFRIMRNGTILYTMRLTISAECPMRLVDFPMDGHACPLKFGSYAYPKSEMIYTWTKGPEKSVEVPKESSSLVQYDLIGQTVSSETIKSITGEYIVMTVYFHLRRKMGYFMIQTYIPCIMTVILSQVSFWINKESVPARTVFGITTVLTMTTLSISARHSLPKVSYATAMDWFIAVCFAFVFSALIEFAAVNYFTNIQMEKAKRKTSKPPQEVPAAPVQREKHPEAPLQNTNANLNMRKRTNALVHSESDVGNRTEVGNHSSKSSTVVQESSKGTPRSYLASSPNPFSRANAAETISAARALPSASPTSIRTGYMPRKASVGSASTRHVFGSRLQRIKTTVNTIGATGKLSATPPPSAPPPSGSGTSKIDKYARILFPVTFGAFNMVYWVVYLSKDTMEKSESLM
T1 sequence (P28472 26-473): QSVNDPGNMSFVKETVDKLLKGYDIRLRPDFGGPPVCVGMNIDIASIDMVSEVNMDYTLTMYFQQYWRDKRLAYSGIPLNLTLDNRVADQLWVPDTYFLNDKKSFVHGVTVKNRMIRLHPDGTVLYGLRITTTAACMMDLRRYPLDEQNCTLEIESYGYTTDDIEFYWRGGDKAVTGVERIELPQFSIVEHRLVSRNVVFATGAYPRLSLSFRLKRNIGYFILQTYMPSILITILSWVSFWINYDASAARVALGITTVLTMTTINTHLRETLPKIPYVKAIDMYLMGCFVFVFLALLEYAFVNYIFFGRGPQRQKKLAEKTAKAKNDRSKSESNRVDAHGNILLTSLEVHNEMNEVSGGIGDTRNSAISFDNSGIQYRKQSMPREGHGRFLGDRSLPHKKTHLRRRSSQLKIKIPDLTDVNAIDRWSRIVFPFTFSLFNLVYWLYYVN
T1 sequence (O14764 17-452 partner limits assumed): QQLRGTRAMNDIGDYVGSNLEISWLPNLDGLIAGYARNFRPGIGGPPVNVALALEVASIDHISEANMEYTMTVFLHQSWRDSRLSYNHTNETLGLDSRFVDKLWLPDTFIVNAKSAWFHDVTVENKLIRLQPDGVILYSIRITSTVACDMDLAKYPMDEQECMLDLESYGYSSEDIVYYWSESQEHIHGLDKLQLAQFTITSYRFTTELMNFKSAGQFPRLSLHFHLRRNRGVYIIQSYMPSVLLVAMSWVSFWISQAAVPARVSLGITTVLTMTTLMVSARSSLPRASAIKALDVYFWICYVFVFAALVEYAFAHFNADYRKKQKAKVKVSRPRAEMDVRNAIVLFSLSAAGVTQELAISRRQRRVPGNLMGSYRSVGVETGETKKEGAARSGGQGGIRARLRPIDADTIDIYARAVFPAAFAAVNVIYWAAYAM

Oc1noc2c1CCNC2 [Gaboxadol, 4,5,6,7-tetrahydroisoxazolo[5,4-c]pyridin-3-ol]
agonist activity at the a4β3δ receptor: potent agonist
